In article PMC8730602 (2022):

Columns and labels:
[1] = tested on: thiolated cortisol aptamer (DNA, aptamer) CGACCGGTCTGGGGACCCTGTCTGGGTGTGTGGGTAGTAGGTCG; assay: aptamer field-effect transistor; conditions: artificial sweat (Table S5), immobilised aptamer; for binding: negligible response at physiological concentrations versus 10 nM cortisol
[2] = tested on: cortisol aptamer, fluorescein at 5' end (DNA, aptamer) CTCTCGGGACGACCGGTCTGGGGACCCTGTCTGGGTGTGTGGGTAGTAGGTCGTCCC; assay: competitive structure-switching fluorescence (FAM/dabcyl); conditions: 154 mM NaCl, 1.058 mM KH2PO4, 2 mM MgCl2; PBS pH 7.3-7.5; dabcyl quencher strand GGTCGTCCCGAGAG displaced, aptamer:quencher 1:5
[3] = tested on: thiolated serotonin aptamer (DNA, aptamer) CGACTGGTAGGCAGATAGGGGAAGCTGATTCGATGCGTGGGTCG; assay: aptamer field-effect transistor; conditions: artificial sweat (Table S5); immobilised aptamer; response over 10 fM to 100 µM

binding [1] | Kd ([1]; on-FET, gate-voltage sweep, apparent) | Kd [2] [nM] | binding [3] | Compound
no | – | – | – | CC(=O)[C@H]1CC[C@H]2[C@@H]3CCC4=CC(=O)CC[C@]4(C)[C@H]3CC[C@]12C
– | ~ 30 pM | 500 | – | C[C@]12CCC(=O)C=C1CC[C@@H]1[C@@H]2[C@@H](O)C[C@@]2(C)[C@H]1CC[C@]2(O)C(=O)CO
no | – | – | – | C[C@]12CC[C@H]3[C@@H](CCC4=CC(=O)CC[C@@]43C)[C@@H]1CC[C@@H]2O
no | – | – | yes | NCCc1c[nH]c2ccc(O)cc12
